Each molecule was assayed on Trypanosoma cruzi (assay: Antitrypanosomal activity against epimastigote forms of Trypanosoma cruzi Y after 72 hr). Conditions: not given; call rule not given here.
Assay type: functional, organism-based

Row | IC50 | SMILES
1 | Not Active | COC(=O)/C=C/c1cc(OC)c(OC)c(OC)c1
2 | Not Active | O=C(CCCCc1ccc2c(c1)OCO2)N1CCCCC1 [TETRAHYDROPIPERINE]
3 | Not Active | O=C(/C=C/CCc1ccc2c(c1)OCO2)N1CCCCC1 [PIPERANINE]
4 | Not Active | O=C(O)/C=C/C=C/c1ccc2c(c1)OCO2 [PIPERIC ACID]

Continued, molecule first:

Row | SMILES | IC50
5 | COc1cc(CCC(=O)N2CCCCC2=O)cc(OC)c1OC [TETRAHYDROPIPLARTINE] | Not Active
6 | CCCCCCCCCC(=O)NCC(C)C [TETRAHYDROPELLITORINE] | Not Active
7 | COc1cc(/C=C/C(=O)O)cc(OC)c1OC [SINAPIC ACID METHYL ETHER] | Not Active
8 | CC(C)CNC(=O)/C=C/c1ccc2c(c1)OCO2 [FOGARAMIDE] | Not Active
9 | CC(C)CNC(=O)/C=C/CCc1ccc2c(c1)OCO2 [4,5-DIHYDROPIPERLONGUMININE] | Not Active

Same assay, conditions: Trypanosoma cruzi, Y, 72 h; read-out: IC50

Row | IC50 | SMILES
10 | 57.1 µM | CCCCC/C=C/C=C/C(=O)NCC(C)C [PELLITORIN]
11 | 21 µM | COc1cc(/C=C/C(=O)N2CCC=CC2=O)cc(OC)c1OC [PIPLARTINE]
12 | 10.5 µM | COc1cc(/C=C\C(=O)N2CCC=CC2=O)cc(OC)c1OC [(Z)-PIPLARTINE]
13 | 233 µM | O=C(/C=C/C=C/c1ccc2c(c1)OCO2)N1CCCCC1 [PIPERINE]
